The values below are quoted from earlier work in US12409168B2, “Formulations of aminopenicillin and methods for solubilizing aminopenicillin” (VETERINARY PHARMACY CORPORATION, priority 2023, dated 2025).

SMILES strings stand for the structures.

In the case of `CC1(C)S[C@@H]2[C@H](NC(=O)[C@H](N)c3ccc(O)cc3)C(=O)N2[C@H]1C(=O)O` [Amoxicillin], the “degradation at 24 hours” value (0.00015 mg/ml, 24 hours) is “no degradation”. The “degradation to (potency remaining) at 24 hours” value (0.42 mg/ml, buffered solution, pH 8.04, 24 hours) is recorded as 73%.
